Measurements from US20240158370A1, “CK1 alpha AND DUAL CK1 alpha / GSPT1 DEGRADING COMPOUNDS” (Innovo Therapeutics, Inc., priority 2022, published 2024).

What was measured:
CK1α = target: T1, CK1α (Homo sapiens, UniProt P48729+Q96SW2); test: HiBiT degradation assay, CK1α, Procedure A; type: cell-based; details: six hours incubation
T1 construct: CSNK1A1-HiBit KI HEK293(LgBit) Cells; host or cells: HEK293(LgBit) knock-in cells
In short: (§1)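 Cells in DMEM+10% FBS at 1×10^6 cells/ml were added to pre-spotted compound (10-point dose response, 10 μM to 0.005 μM, 0.1% DMSO) and incubated 6 h at 37° C. Nano-Glo HiBiT lytic reagent was added and luminescence read. DC50 and Ymin came from 4-parameter curve fits.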

GSPT1 = GSPT1 (Homo sapiens, UniProt P15170+Q96SW2); test: HiBiT degradation assay, GSPT1, Procedure A; type: cell-based; parameters: HiBit-GSPT1 KI HEK293(LgBit) Cells; host or cells: HEK293(LgBit) knock-in cells; details: six hours incubation
Sequence of GSPT1 (P15170 whole entry): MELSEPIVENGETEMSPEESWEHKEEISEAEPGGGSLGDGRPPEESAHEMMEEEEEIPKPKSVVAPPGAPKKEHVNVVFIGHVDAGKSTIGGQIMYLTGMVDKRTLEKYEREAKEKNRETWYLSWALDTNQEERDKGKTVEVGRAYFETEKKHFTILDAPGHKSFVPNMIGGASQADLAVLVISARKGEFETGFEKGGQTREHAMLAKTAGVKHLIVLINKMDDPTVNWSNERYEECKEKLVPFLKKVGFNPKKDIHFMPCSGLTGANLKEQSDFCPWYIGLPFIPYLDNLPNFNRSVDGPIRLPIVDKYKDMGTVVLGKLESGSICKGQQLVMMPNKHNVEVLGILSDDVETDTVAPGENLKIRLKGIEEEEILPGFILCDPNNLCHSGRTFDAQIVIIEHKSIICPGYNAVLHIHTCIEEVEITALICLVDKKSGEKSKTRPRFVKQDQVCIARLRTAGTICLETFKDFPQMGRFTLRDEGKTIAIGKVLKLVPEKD
Sequence of GSPT1 (Q96SW2 whole entry): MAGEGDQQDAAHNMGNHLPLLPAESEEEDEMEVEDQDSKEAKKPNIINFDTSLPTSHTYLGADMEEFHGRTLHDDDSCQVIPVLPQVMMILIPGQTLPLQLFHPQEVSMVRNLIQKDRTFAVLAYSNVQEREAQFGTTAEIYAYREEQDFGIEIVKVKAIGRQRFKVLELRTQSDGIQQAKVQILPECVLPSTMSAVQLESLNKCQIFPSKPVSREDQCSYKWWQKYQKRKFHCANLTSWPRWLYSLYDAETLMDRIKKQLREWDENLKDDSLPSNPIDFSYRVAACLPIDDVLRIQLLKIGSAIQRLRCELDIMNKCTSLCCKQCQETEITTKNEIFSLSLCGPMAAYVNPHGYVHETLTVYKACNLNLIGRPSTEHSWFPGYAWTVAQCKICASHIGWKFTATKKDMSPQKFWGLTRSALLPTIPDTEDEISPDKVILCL
Sequence of GSPT1 (Q16531 whole entry partner): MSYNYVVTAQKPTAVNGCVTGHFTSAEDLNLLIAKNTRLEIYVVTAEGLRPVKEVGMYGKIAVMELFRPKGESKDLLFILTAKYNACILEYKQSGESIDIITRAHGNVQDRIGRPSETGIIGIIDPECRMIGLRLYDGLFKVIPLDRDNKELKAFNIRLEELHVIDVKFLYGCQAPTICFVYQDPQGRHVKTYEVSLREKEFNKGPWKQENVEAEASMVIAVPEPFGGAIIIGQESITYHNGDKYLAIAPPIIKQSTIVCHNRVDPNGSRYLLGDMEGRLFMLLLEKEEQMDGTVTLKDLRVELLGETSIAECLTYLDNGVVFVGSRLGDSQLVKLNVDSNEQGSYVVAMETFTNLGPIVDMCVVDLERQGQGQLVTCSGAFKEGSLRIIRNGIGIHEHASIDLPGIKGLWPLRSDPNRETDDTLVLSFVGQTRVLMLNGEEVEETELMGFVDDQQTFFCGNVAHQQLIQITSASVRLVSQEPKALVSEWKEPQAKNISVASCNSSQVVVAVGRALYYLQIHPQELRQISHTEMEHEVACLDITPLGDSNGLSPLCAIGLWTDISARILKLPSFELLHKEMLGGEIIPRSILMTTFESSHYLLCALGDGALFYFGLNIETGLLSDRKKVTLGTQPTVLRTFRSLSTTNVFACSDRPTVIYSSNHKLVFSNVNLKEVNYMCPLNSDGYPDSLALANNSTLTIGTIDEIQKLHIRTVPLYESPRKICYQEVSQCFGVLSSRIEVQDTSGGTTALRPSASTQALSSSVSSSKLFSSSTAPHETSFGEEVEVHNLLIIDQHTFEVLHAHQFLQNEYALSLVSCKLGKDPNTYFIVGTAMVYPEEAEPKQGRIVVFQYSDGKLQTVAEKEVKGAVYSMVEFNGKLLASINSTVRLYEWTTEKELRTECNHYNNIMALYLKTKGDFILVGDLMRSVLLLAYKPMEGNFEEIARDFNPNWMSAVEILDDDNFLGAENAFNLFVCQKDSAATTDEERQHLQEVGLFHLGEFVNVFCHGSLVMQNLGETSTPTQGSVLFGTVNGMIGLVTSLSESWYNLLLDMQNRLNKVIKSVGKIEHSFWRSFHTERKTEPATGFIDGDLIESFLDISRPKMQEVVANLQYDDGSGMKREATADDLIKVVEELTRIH
In short: as §1

T1 sequence (P48729 whole entry): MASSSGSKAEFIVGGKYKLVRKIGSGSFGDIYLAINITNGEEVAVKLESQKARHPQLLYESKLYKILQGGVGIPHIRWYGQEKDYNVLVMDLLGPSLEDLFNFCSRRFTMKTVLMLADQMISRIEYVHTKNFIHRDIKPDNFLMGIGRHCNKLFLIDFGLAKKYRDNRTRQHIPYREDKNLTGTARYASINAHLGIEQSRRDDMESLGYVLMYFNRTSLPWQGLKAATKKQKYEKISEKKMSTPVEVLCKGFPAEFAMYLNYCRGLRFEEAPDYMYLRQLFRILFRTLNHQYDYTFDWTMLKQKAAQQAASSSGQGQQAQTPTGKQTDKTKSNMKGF
T1 sequence (Q96SW2 whole entry): as the sequence (Q96SW2 whole entry) above
T1 sequence (Q16531 whole entry partner): as the sequence (Q16531 whole entry partner) above

Row | Compound | CK1α Ymin (CK1α) | DC50 (CK1α) [nM] | DC50 (GSPT1) [nM] | GSPT1 Ymin (GSPT1)
1 | Cn1cnc(-c2ccc3c(c2)CN(C2CCC(=O)NC2=O)C3=O)c1-c1cccc(C#N)c1 (stereo not drawn) [Example 232] | D (D = >10- 25% remaining) | < 25 | ≥ 25 | F (F = >75-100% remaining)
2 | Cn1cnc(-c2ccc3c(c2)CN(C2CCC(=O)NC2=O)C3=O)c1-c1ccccc1C#N (stereo not drawn) [Example 233] | D (D = >10- 25% remaining) | < 25 | ≥ 25 | F (F = >75-100% remaining)
3 | Cc1ccc(C)c(-c2c(-c3ccc4c(c3)CN(C3CCC(=O)NC3=O)C4=O)ncn2C)c1 (stereo not drawn) [Example 234] | D (D = >10- 25% remaining) | < 25 | ≥ 25 | F (F = >75-100% remaining)
4 | COc1ccccc1-c1c(-c2ccc3c(c2)CN(C2CCC(=O)NC2=O)C3=O)ncn1C (stereo not drawn) [Example 235] | D (D = >10- 25% remaining) | < 25 | ≥ 25 | F (F = >75-100% remaining)
5 | Cn1cnc(-c2ccc3c(c2)CN(C2CCC(=O)NC2=O)C3=O)c1-c1ccc(CO)cc1 (stereo not drawn) [Example 236] | C (C = 0-10% remaining) | < 25 | ≥ 25 | E (E = >25-75% remaining)
6 | Cc1ccc(F)cc1-c1c(-c2ccc3c(c2)CN(C2CCC(=O)NC2=O)C3=O)ncn1C (stereo not drawn) [Example 237] | E (E = >25-75% remaining) | < 25 | ≥ 25 | F (F = >75-100% remaining)
7 | Cc1cc(-c2c(-c3ccc4c(c3)CN(C3CCC(=O)NC3=O)C4=O)ncn2C)ccc1F (stereo not drawn) [Example 238] | D (D = >10- 25% remaining) | < 25 | ≥ 25 | F (F = >75-100% remaining)
8 | Cc1ccc(-c2c(-c3ccc4c(c3)CN(C3CCC(=O)NC3=O)C4=O)ncn2C)c(F)c1 (stereo not drawn) [Example 239] | C (C = 0-10% remaining) | < 25 | < 25 | F (F = >75-100% remaining)
9 | Cc1ccc(-c2c(-c3ccc4c(c3)CN(C3CCC(=O)NC3=O)C4=O)ncn2C)cc1F (stereo not drawn) [Example 240] | D (D = >10- 25% remaining) | < 25 | < 25 | E (E = >25-75% remaining)
10 | Cc1cc(-c2c(-c3ccc4c(c3)CN(C3CCC(=O)NC3=O)C4=O)ncn2C)c(C)s1 (stereo not drawn) [Example 241] | D (D = >10- 25% remaining) | < 25 | ≥ 25 | F (F = >75-100% remaining)
11 | Cn1cnc(-c2ccc3c(c2)CN(C2CCC(=O)NC2=O)C3=O)c1-c1cccc(F)c1F (stereo not drawn) [Example 242] | D (D = >10- 25% remaining) | < 25 | < 25 | F (F = >75-100% remaining)

Next, values leading:

Row | CK1α Ymin (CK1α) | DC50 (CK1α) [nM] | DC50 (GSPT1) [nM] | GSPT1 Ymin (GSPT1) | Compound
12 | E (E = >25-75% remaining) | ≥ 25 | ≥ 25 | F (F = >75-100% remaining) | Cc1ccc(C#N)cc1-c1c(-c2ccc3c(c2)CN(C2CCC(=O)NC2=O)C3=O)ncn1C (stereo not drawn) [Example 243]
13 | D (D = >10- 25% remaining) | < 25 | ≥ 25 | F (F = >75-100% remaining) | Cc1ccc(-c2c(-c3ccc4c(c3)CN(C3CCC(=O)NC3=O)C4=O)ncn2C)c(C#N)c1 (stereo not drawn) [Example 244]
14 | E (E = >25-75% remaining) | < 25 | ≥ 25 | F (F = >75-100% remaining) | Cn1cnc(-c2ccc3c(c2)CN(C2CCC(=O)NC2=O)C3=O)c1-c1ccc2c(c1)OCC2 (stereo not drawn) [Example 245]
15 | E (E = >25-75% remaining) | < 25 | ≥ 25 | F (F = >75-100% remaining) | CC(C)c1ccc(-c2c(-c3ccc4c(c3)CN(C3CCC(=O)NC3=O)C4=O)ncn2C)cc1 (stereo not drawn) [Example 246]
16 | E (E = >25-75% remaining) | < 25 | ≥ 25 |  | Cn1cnc(-c2ccc3c(c2)CN(C2CCC(=O)NC2=O)C3=O)c1-c1cccc(C#N)c1F (stereo not drawn) [Example 247]
